The source of these data is ChEMBL document CHEMBL5375959 (J Med Chem, 2023).

By pEC50 is commonly meant the EC50 on a negative log10 scale, so that one unit is a factor of ten.

SMILES strings stand for the structures. pEC50: −log10 of the molar value. Activity calls are given as the source filed them. The rule behind the calls is not given here. A value given as a limit tells only on which side of the number the result lay.

Data set [1] can be described thus: Permeability of the compound measured after 24 hrs by PAMPA. It counts as ADME. To be noted: read-out: permeability. A general note: The PAMPA barrier holds no transporters, so it reflects passive diffusion.
In data set [2] the target is Sarcoplasmic/endoplasmic reticulum calcium ATPase 2 (Homo sapiens) (UniProt P16615). Description: Activation of SERCA2a in human HEK293T cells endoplasmic reticulum assessed as increase in […] measured for 10 mins in presence of ATP by NADH fluorescence-coupled ATPase assay. In kind it is subcellular.
Data set [3] deals with Sarcoplasmic/endoplasmic reticulum calcium ATPase 2 (Mus musculus) (UniProt O55143). As to the kind of experiment: Activation of SERCA2a in C57BL/6N mouse sarcoplasmic reticulum assessed as increase in […] measured for 10 mins in presence of ATP by NADH fluorescence-coupled ATPase assay. It counts as subcellular. To be noted: filed as activator.
Data set [4] deals with T1, Ryanodine receptor 2 (Homo sapiens, UniProt Q92736). Description: Modulator activity at wild type RyR2 (unknown origin) expressed in HEK293T co-expressed with R-CEPIA1er assessed as decrease in RyR2-mediated calcium leak in presence of calcium chloride by time-lapse fluorescence analysis. It counts as cell-based.
T1 sequence (Q92736 whole entry): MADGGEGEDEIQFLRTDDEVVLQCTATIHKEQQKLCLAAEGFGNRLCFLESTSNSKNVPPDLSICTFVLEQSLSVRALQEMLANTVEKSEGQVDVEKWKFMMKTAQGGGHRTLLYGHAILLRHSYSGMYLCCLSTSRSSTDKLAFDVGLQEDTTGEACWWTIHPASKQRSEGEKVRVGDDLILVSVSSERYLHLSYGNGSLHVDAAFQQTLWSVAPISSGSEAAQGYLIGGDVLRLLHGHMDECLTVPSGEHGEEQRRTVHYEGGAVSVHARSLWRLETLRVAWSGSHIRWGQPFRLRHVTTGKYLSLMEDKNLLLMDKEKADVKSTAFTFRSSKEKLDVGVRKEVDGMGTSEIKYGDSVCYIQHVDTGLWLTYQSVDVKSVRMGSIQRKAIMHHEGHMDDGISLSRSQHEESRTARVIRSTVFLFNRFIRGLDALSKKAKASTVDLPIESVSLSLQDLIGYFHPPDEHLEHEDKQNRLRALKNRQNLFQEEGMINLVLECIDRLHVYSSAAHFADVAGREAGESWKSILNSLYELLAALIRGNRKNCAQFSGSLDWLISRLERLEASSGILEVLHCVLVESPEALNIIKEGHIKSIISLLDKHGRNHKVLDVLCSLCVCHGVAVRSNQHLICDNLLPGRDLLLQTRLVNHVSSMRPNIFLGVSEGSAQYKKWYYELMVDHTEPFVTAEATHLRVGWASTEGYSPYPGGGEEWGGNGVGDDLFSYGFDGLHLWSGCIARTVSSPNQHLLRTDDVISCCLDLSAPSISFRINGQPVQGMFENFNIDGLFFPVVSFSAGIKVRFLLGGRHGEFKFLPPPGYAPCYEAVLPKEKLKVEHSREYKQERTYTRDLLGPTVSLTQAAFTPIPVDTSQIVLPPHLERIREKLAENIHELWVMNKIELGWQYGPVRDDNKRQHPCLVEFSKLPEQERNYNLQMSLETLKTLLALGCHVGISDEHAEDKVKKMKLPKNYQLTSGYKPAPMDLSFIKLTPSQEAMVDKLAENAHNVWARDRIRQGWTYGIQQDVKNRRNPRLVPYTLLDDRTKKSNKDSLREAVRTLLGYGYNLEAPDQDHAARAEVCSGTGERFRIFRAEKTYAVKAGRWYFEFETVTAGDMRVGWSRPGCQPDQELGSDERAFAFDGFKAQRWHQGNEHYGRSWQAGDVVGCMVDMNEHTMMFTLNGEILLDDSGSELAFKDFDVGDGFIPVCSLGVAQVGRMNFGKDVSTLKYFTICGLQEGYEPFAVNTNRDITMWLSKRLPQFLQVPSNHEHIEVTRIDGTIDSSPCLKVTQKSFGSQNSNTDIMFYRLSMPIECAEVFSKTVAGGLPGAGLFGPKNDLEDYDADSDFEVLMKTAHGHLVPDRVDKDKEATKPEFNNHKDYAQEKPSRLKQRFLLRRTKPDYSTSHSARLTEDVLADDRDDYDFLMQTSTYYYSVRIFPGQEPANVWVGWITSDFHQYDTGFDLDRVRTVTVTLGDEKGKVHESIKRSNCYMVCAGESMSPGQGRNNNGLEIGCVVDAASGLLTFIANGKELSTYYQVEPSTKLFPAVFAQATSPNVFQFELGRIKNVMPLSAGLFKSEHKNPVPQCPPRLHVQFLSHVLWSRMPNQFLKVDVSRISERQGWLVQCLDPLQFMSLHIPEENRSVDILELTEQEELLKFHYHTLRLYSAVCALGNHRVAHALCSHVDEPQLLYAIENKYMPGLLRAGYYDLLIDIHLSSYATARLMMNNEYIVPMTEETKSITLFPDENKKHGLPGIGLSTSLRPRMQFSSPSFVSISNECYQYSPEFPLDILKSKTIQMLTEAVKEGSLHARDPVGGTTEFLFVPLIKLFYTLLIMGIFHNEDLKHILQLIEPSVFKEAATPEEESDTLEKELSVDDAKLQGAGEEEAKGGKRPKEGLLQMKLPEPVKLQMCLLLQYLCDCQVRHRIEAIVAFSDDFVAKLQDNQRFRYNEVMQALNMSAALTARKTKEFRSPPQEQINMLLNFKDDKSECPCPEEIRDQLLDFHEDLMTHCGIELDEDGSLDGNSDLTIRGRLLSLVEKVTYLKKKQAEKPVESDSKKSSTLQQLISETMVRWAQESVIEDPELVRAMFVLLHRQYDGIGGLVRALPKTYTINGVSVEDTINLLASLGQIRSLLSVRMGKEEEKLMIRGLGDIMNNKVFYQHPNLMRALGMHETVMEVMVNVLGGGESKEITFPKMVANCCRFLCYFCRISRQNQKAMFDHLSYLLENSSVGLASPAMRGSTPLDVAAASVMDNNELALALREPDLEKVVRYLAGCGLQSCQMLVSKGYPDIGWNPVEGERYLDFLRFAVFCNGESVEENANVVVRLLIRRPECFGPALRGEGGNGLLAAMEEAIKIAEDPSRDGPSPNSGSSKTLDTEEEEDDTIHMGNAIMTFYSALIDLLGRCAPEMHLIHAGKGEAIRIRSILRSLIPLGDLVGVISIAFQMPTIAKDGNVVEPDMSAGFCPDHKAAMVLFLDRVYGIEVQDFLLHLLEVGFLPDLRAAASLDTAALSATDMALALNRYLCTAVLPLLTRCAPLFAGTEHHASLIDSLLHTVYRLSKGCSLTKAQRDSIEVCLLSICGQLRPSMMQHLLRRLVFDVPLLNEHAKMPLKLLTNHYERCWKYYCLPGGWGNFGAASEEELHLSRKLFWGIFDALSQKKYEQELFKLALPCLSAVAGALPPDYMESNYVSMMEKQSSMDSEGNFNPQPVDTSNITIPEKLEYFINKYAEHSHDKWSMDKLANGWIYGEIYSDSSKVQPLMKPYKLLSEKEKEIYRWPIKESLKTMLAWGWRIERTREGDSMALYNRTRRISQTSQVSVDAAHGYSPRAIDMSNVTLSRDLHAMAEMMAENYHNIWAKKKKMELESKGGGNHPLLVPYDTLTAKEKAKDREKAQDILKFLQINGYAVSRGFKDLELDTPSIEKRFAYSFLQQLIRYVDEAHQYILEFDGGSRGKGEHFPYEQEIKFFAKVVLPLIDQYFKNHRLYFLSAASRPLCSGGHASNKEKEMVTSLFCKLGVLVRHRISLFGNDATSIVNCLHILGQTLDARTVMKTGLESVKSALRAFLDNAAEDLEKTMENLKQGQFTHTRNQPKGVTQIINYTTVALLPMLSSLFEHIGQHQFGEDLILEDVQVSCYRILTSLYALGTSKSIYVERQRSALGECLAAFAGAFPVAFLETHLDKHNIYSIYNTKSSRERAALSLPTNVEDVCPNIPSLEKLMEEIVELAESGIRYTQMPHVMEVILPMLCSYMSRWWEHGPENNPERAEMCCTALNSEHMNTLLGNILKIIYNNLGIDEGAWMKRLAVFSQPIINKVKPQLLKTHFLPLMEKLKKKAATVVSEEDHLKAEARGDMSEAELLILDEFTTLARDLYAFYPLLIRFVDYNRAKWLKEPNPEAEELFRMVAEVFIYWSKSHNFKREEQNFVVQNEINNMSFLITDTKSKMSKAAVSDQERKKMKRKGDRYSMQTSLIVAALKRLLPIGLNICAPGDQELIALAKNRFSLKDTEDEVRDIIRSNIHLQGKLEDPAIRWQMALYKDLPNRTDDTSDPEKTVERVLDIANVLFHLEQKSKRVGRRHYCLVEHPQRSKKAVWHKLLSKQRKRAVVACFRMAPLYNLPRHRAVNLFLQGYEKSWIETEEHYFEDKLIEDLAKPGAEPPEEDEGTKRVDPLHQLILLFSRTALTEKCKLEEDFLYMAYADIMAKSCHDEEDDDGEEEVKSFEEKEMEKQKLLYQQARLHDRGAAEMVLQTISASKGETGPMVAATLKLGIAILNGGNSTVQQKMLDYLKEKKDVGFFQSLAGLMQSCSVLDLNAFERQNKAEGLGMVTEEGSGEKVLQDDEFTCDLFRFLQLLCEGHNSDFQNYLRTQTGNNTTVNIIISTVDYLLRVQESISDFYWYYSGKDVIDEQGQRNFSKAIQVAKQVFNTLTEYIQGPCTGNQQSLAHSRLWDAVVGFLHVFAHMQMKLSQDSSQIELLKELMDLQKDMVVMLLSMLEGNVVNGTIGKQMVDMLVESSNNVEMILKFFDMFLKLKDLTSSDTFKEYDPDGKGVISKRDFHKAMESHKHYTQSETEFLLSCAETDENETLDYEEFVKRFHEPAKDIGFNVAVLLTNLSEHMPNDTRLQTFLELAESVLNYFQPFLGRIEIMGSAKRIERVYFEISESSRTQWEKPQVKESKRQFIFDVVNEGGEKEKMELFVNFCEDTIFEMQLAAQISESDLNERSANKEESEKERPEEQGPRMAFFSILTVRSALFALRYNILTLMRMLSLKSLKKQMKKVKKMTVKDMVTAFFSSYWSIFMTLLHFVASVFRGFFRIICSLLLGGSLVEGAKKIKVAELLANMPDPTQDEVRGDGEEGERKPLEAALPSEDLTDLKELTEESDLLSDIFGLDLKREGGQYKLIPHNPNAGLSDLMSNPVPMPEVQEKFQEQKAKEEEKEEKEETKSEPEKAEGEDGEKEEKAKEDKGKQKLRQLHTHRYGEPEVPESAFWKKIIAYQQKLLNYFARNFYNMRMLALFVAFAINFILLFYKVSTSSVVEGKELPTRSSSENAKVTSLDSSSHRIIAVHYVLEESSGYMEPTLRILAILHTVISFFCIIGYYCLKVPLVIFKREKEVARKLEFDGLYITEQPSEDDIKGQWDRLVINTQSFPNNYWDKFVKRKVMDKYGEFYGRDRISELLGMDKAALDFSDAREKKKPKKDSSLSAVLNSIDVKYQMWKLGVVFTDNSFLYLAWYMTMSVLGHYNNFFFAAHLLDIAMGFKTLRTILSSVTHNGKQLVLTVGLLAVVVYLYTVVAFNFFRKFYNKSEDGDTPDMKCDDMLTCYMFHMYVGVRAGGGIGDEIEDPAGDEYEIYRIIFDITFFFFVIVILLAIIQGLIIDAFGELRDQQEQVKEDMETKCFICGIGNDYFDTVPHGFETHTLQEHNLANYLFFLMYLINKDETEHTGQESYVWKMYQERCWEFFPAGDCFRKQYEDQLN
Data set [5] has as its target Sarcoplasmic/endoplasmic reticulum calcium ATPase 2 (Mus musculus) (UniProt O55143). Description: (§1) Activation of SERCA2a in mouse HL-1 cells assessed as increase in caffeine-induced calcium release incubated for 2 hrs by FLIPR Calcium 6 dye based caffeine assay. In kind it is cell-based.
For data set [6] the target is unchanged. As to the kind of experiment: Activation of SERCA2a in mouse HL-1 cells assessed as increase in caffeine-induced calcium release at 0.1 to 50 uM incubated for 2 hrs by FLIPR Calcium 6 dye based caffeine assay. To be noted: dose 0.1-50 µM. It counts as cell-based.
For data set [7] the target is unchanged. Description: Activation of SERCA2a in mouse HL-1 cells assessed as increase in caffeine-induced calcium release at 10 uM incubated for 2 hrs by FLIPR Calcium 6 dye based caffeine assay. It counts as cell-based.
Data set [8] addresses T1, Ryanodine receptor 2. As to the kind of experiment: Modulator activity at wild type RyR2 (unknown origin) expressed in HEK293T co-expressed with R-CEPIA1er assessed as decrease in RyR2-mediated calcium leak at 25 uM in presence of calcium chloride by time-lapse fluorescence analysis. In kind it is cell-based. The conditions noted are these: filed as modulator.
Data set [9] addresses Sarcoplasmic/endoplasmic reticulum calcium ATPase 2 (Mus musculus, UniProt O55143). The description is as §1. It counts as cell-based.
In data set [10] the target is Sarcoplasmic/endoplasmic reticulum calcium ATPase 2 (Mus musculus) (UniProt O55143). As to the kind of experiment: Activation of SERCA2a in mouse HL-1 cells assessed as increase in caffeine-induced calcium release at 3 uM incubated for 2 hrs by FLIPR Calcium 6 dye based caffeine assay relative to control. It counts as cell-based. To be noted: filed as activator.
For data set [11] the target is unchanged. Description: Activation of SERCA2a in mouse HL-1 cells assessed as increase in caffeine-induced calcium release at 10 uM incubated for 2 hrs by FLIPR Calcium 6 dye based caffeine assay relative to control. It counts as cell-based. The conditions noted are these: filed as activator.
The target is the same in data set [12]. As to the kind of experiment: Activation of SERCA2a in mouse HL-1 cells assessed as increase in caffeine-induced calcium release at 25 uM incubated for 2 hrs by FLIPR Calcium 6 dye based caffeine assay. It counts as cell-based.
Data set [13] shares this target. Description: Activation of SERCA2a in mouse HL-1 cells assessed as increase in caffeine-induced calcium release at 50 uM incubated for 2 hrs by FLIPR Calcium 6 dye based caffeine assay. It counts as cell-based.
Data set [14] addresses T1, Ryanodine receptor 2. As to the kind of experiment: Modulator activity at wild type RyR2 (unknown origin) expressed in HEK293T co-expressed with R-CEPIA1er assessed as decrease in RyR2-mediated calcium leak at 1 mM in presence of calcium chloride by time-lapse fluorescence analysis. In kind it is cell-based. The conditions noted are these: filed as modulator.

For `COc1ccc(OCCCNCCCCC2(O)CC2)cc1`, in data set [1], the Papp at 24 h worked out at 4 ×10⁻⁶ cm/s. Moreover, the outcome in data set [2] was inactive. For the same molecule, the result in [3] was Active.

`COc1ccc2c(c1)CN(CCCCNCCCCC1(O)CC1)CCS2`: the Papp at 24 h in data set [1] was 0.8 ×10⁻⁶ cm/s. Besides, in [4], the pEC50 was 5.09. In addition, the outcome in data set [2] was inactive. In addition, the outcome in data set [3] was Active.

In the case of `COc1ccc2c(c1)CN(C(=O)C(=O)O)CCS2` [ALADORIAN], the Papp at 24 h in data set [1] was 1 ×10⁻⁶ cm/s. Further, the outcome in data set [4] (filed as modulator) and in [8] was Active. Besides, the result in data set [5], in data set [6] and in data set [7] was inactive.

`COc1ccc(SCCCN(CCCCC2(O)CC2)CCCCC2(O)CC2)cc1`: the Papp at 24 h in [1] was 3.6 ×10⁻⁶ cm/s. The result in data set [2] (filed as activator) and in [3] was Active.

Turning to `COc1ccc(SCCCNCCCCC2(O)CC2)cc1`, the Papp at 24 h in data set [1] was 6.9 ×10⁻⁶ cm/s. Further, the result in data set [2] (filed as activator) and in [3] was Active.

As for `COc1ccc(OCCCN(CCCCC2(O)CC2)CCCCC2(O)CC2)cc1`, the Papp at 24 h in [1] came out at 4 ×10⁻⁶ cm/s. For the same molecule, the values for the pEC50 in data set [4] and in data set [9] were under 4.64 and 5.82, respectively. In addition, the result in data set [2] (filed as activator) and in [3] was Active. The Activity in [10] and in data set [11] was 150% each time. Also, the outcome in [12] and in [13] was inactive.

In the case of `COc1ccc2c(c1)CN(CCCCN(CCCCC1(O)CC1)CCCCC1(O)CC1)CCS2`, in [1], the Papp at 24 h was found to be 0.6 ×10⁻⁶ cm/s. In addition, the pEC50 in [4] is 5.57. Moreover, in data set [8], the result was Active.

As to `COc1ccc2c(c1)CN(Cc1ccc(C(=O)O)cc1)CCS2` [SURLORIAN], the Papp at 24 h in data set [1] stood at 6.8 ×10⁻⁶ cm/s. Further, the outcome in data set [4] (filed as modulator), in data set [2] (filed as activator) and in data set [3] was Active. Further, in data set [5] (filed as activator), the Activity result is “Dose-Dependent Effect”. For the same molecule, in data set [9], the pEC50 was 4.46.

As to `COc1ccc2c(c1)CN(CCCCC1(O)CC1)CCS2`, the Papp at 24 h in data set [1] turned out to be 3.6 ×10⁻⁶ cm/s. Also, the outcome in data set [4] was inactive. In data set [9], the pEC50 was under 3.00. The outcome in data set [2] (filed as activator) and in data set [3] was Active.

For the molecule `COc1ccc2c(c1)CN(C)CCS2`, the Papp at 24 h in data set [1] is 1.2 ×10⁻⁶ cm/s. In addition, the result in [4] (filed as modulator) and in data set [14] was Active. For the same molecule, the outcome in data set [5], in data set [6] and in data set [7] was inactive.

For the molecule `O=C1CN(/N=C/c2ccc(-c3ccc([N+](=O)[O-])cc3)o2)C(=O)N1`, the outcome in data set [8] was Active.
